Laboratory results reported in patent publication EP4786484A1, “CYCLIC PEPTIDE COMPOUND AND USE THEREOF” (Shenzhen Zhongge Biological Technology Co., Ltd., priority 2023, dated 2026).
Residues, ends and D or L forms follow the SMILES beside them.

Tests used:
Type in all cases: cell-based, human
[1] = test system: hyaluronic acid (HA); experiment: Hyaluronic acid (HA) elevation effect in fibroblasts (ELISA); design: HA elevation effect in the fibroblasts: unit not given here; details: 1 µM, 24 h; for HA elevation effect in the fibroblasts: ELISA, Blank control (BC) 1402.44; for hyaluronic acid (HA) content compared to the BC: result in words
From the text: (§1) B. Collagen I (type I collagen) elevation effect in fibroblasts, hyaluronic acid (HA) elevation effect in fibroblasts, and elastin (ELN) elevation effect in fibroblasts
(§2) Test materials: Fibroblasts of human origin (Guangdong Boxi Biotechnology Co., Ltd., Lot No. Fb20081902), DMEM culture medium (Gibco, 23042301, expiration date 230522), PBS (Solarbio, P1010), TGF-β1 (Peprotech, 230504), Collagen I ELISA Kit (Cusabio, B21025824), Elastin ELISA kit (Abcam, GR3446070-2), HA ELISA kit (RD, P325066). CO2 incubator (Thermo, 1501), super-clean bench (AIRTECH, SW-CJ-1F), microplate reader (BioTek, Epoch).
(§3) Test methods: • 1) Inoculation: After cell resuscitation, the cells were inoculated into 6-well plates when the plating rate reached around 60%, and were incubated overnight in an incubator (37°C, 5% CO2). • 2) Formulation of solutions: The cyclic peptide compounds in the sample group, PC2 (Biotinoyl-GHK, [drawing 2] ) and PC3 [drawing 3] in the positive reference group were all at the concentration of 1 µM, and the test substance working solutions were formulated. Only the cell culture medium was added for the blank control group (BC). • 3) Administration: When the cell plating rate in the 6-well plates reached 40% to 60%, administration was performed at 2 mL per well. 3 duplicate wells were set for each group. Incubation was performed in an incubator (37°C, 5% CO2) for 24 h. • 4) ELISA assay: The ELISA assay was performed according to the instructions of the ELISA kit, with the detection indicators being Collagen I elevation effect in the fibroblasts, HA elevation effect in the fibroblasts, and elastin elevation effect in the fibroblasts.

[2] = test system: elastin (ELN); experiment: Elastin (ELN) elevation effect in fibroblasts (ELISA); design: Elastin elevation effect in the fibroblasts: unit not given here; details: 1 µM, 24 h; for Elastin elevation effect in the fibroblasts: ELISA, Blank control (BC) 756.52; for elastin content compared to the BC: result in words
From the text: as §1, §2, §3

[3] = test system: Collagen I (type I collagen); experiment: Collagen I elevation effect in fibroblasts (ELISA); design: Collagen I elevation effect in the fibroblasts: unit not given here; details: 1 µM, 24 h; for Collagen I elevation effect in the fibroblasts: ELISA, Blank control (BC) 35.6; for type I collagen (Collagen I) content compared to the BC: result in words
From the text: as §1, §2, §3

C[C@@H]1NC(=O)[C@H](CCCCN)NC(=O)[C@H](Cc2c[nH]cn2)NC(=O)CNC(=O)[C@@H]2CCCN2C(=O)[C@H](Cc2ccccc2)NC1=O [compound 52] (cyclo(AFPGHK))
HA elevation effect in the fibroblasts [1]: 2900.83
hyaluronic acid (HA) content compared to the BC [1]: significant increase
Elastin elevation effect in the fibroblasts [2]: 1043.27
elastin content compared to the BC [2]: significant increase

CC[C@H](C)[C@@H]1NC(=O)[C@H](CCCCN)NC(=O)[C@H](Cc2c[nH]cn2)NC(=O)CNC(=O)[C@@H]2CCCN2C(=O)[C@H](CC(C)C)NC1=O [compound 196] (cyclo(GHKILP))
HA elevation effect in the fibroblasts [1]: 2305.13
hyaluronic acid (HA) content compared to the BC [1]: significant increase
Elastin elevation effect in the fibroblasts [2]: 1175.6
elastin content compared to the BC [2]: significant increase

CC[C@H](C)[C@@H]1NC(=O)[C@H](CCCCN)NC(=O)[C@H](Cc2c[nH]cn2)NC(=O)CNC(=O)[C@@H]2CCCN2C(=O)[C@H](CCSC)NC1=O [compound 205] (cyclo(GHKIMP))
Collagen I elevation effect in the fibroblasts [3]: 49.25
type I collagen (Collagen I) content compared to the BC [3]: significant increase
HA elevation effect in the fibroblasts [1]: 2641.21
hyaluronic acid (HA) content compared to the BC [1]: significant increase
Elastin elevation effect in the fibroblasts [2]: 1074.17
elastin content compared to the BC [2]: significant increase

CC[C@H](C)[C@@H]1NC(=O)[C@H](CCCCN)NC(=O)[C@H](Cc2c[nH]cn2)NC(=O)CNC(=O)[C@@H]2CCCN2C(=O)[C@H](Cc2c[nH]c3ccccc23)NC1=O [compound 232] (cyclo(GHKIWP))
Collagen I elevation effect in the fibroblasts [3]: 67.93
type I collagen (Collagen I) content compared to the BC [3]: significant increase
Elastin elevation effect in the fibroblasts [2]: 1001.84
elastin content compared to the BC [2]: significant increase

CC[C@H](C)[C@@H]1NC(=O)[C@H](CC(C)C)NC(=O)[C@H](CCCCN)NC(=O)[C@H](Cc2c[nH]cn2)NC(=O)CNC(=O)[C@@H]2CCCN2C1=O [compound 268] (cyclo(GHKLIP))
Collagen I elevation effect in the fibroblasts [3]: 61.46
type I collagen (Collagen I) content compared to the BC [3]: significant increase

CC[C@H](C)[C@@H]1NC(=O)[C@H](Cc2ccccc2)NC(=O)[C@H](CC(C)C)NC(=O)[C@H](CCCCN)NC(=O)[C@H](Cc2c[nH]cn2)NC(=O)CNC1=O [compound 291] (cyclo(FIGHKL))
HA elevation effect in the fibroblasts [1]: 2477.91
hyaluronic acid (HA) content compared to the BC [1]: significant increase
Elastin elevation effect in the fibroblasts [2]: 1177.19
elastin content compared to the BC [2]: significant increase

CSCC[C@@H]1NC(=O)[C@H](CCCCN)NC(=O)[C@H](Cc2c[nH]cn2)NC(=O)CNC(=O)[C@@H]2CCCN2C(=O)CNC1=O [compound 340] (cyclo(GHKMGP))
Collagen I elevation effect in the fibroblasts [3]: 90.07
type I collagen (Collagen I) content compared to the BC [3]: significant increase
Elastin elevation effect in the fibroblasts [2]: 1304.87
elastin content compared to the BC [2]: significant increase

CSCC[C@@H]1NC(=O)[C@@H]2CCCN2C(=O)[C@H](C(C)C)NC(=O)[C@H](CCCCN)NC(=O)[C@H](Cc2c[nH]cn2)NC(=O)CNC1=O [compound 707] (cyclo(GHKVPM))
Collagen I elevation effect in the fibroblasts [3]: 66.21
type I collagen (Collagen I) content compared to the BC [3]: significant increase

CC(C)[C@@H]1NC(=O)[C@H](CCCCN)NC(=O)[C@H](Cc2c[nH]cn2)NC(=O)CNC(=O)[C@H](Cc2c[nH]c3ccccc23)NC(=O)[C@@H]2CCCN2C1=O [compound 710] (cyclo(GHKVPW))
Collagen I elevation effect in the fibroblasts [3]: 110.87
type I collagen (Collagen I) content compared to the BC [3]: significant increase
Elastin elevation effect in the fibroblasts [2]: 1207.29
elastin content compared to the BC [2]: significant increase
